From patent publication US20100272837A1, “TRADITIONAL CHINESE MEDICINAL COMPOSITIONS FOR TREATING DEPRESSION , FORMULATION THEREOF, METHOD FOR PREPARING THE SAME THEREOF” (HEBEI YILING MEDICINE RESEARCH INSTITUTE CO. LTD., priority 2006, published 2010)
Where a name gives a salt, the structure may show the parent alone.

What was measured:
Format in all cases: in vivo, ICR mice
[1] = tested on: mice of reserpine depression model; assay: Eyelids closing (ptosis) caused by reserpine; settings: for Number of animals which close the eyelids at 1 h after the administration, ± (semi-open eyelids) / Number of animals which close the eyelids at 1 h after the administration, − (open eyelids) / Number of animals which close the eyelids at 1 h after the administration, □ (close eyelids) / Number of animals which close the eyelids at 2 h after the administration, ± (semi-open eyelids) / Number of animals which close the eyelids at 2 h after the administration, − (open eyelids) / Number of animals which close the eyelids at 2 h after the administration, □ (close eyelids) / Number of animals which close the eyelids at 6 h after the administration, ± (semi-open eyelids) / Number of animals which close the eyelids at 6 h after the administration, − (open eyelids) / Number of animals which close the eyelids at 6 h after the administration, □ (close eyelids): gavage 22 days, reserpine 2 mg/kg ip, 15 animals; for effect on reserpine-induced ptosis (in words): P<0.01
Description: (§1) Method: ICR male mice (SPF-grade, having a body weight of 17-20 g) were stochastically divided into seven groups according to the body weight, and the administration dosages can be found in Table 1. The animals in the groups of administration with a drug were administered by gavage for 22 consecutive days. The normal control group and the reserpine control group were administered by gavage with isovolumetric distilled water (0.2 ml/10 g body weight). 2 mg/kg body weight of reserpine was administered by intraperitoneal injection on the 22nd day. After 1 h, 2 h and 6 h of injection of reserpine, animals were placed on a bracket and under observation for 15 s to record the number of animals that closed the eyelids (wherein “−” represents open eyelids; “±” represents semi-open eyelids; and “+” represents close eyelids). […] At 2 h, 4 h, and 6 h after the administration of reserpine, animals were placed at the center of a piece of circular white paper with a diameter of 7.5 cm and under observation for 15 s to record the number of animals that still remained within the circle in 15 s.

[2] = tested on: mice of reserpine depression model; assay: “Excircle” behaviour (akinesia) of mice treated with reserpine; settings: for Number of animals that have excircle behaviors at 2 h, Excircle (+) / Number of animals that have excircle behaviors at 2 h, Within circle (□) / Number of animals that have excircle behaviors at 4 h, Excircle (+) / Number of animals that have excircle behaviors at 4 h, Within circle (□) / Number of animals that have excircle behaviors at 6 h, Excircle (+) / Number of animals that have excircle behaviors at 6 h, Within circle (□): gavage 22 days, reserpine 2 mg/kg ip, 15 animals; for effect on “excircle” rate of reserpine mice (in words): P<0.05 or P<0.01
Description: as §1

[3] = tested on: mice of reserpine depression model; assay: Body temperature of mice treated with reserpine; settings: for Body temperature, 6 h after making models: rectal temperature; for effect on fall in body temperature caused by reserpine (in words): P<0.01
Description: Method: ICR male mice (SPF-grade, having a body weight of 18-22 g) were stochastically divided into seven groups according to the body weight, and the dosages administrated are shown in Table 7. The animals in the groups of administration with a drug were administered for 22 consecutive days, and the basal body temperature (rectal temperature) of the animals was measured before administration on the 22nd day. […] The difference values of body temperature before and after administration and the difference values of their own body temperatures were calculated so as to conduct the statistical comparison by single factor analysis of variance (H. G Vogel & W. H. Vogel, Drug Discovery and Evaluation […]Guidance for Pharmacological Assays, translated by D U Guanhua et al, [M] Beijing: Science Press, 2001.409,412). The results can be found in Tables 7 and 8.

[4] = tested on: mice of reserpine depression model; assay: NA, DA and 5-HT in the brain tissue of reserpine mice (fluorophotometry); settings: for 5-HT in the brain tissue of reserpine mice / DA in the brain tissue of reserpine mice / NA in the brain tissue of reserpine mice: gavage 25 days, reserpine 1 mg/kg ip
Description: The animals in the groups of administration with a drug were administered by gavage for 25 consecutive days. The normal control group and reserpine control group were administered with isovolumetric distilled water. On the 23rd day of the test, 1 mg/kg body weight of reserpine was ip administered for each group except the normal control group, and each group receiving reserpine was administered once more. At 1 hour after the last administration of reserpine, the heads of mice were cut off and the brain tissues were taken out, frozen with dry ice and preserved at −20□. The content of noradrenaline (NA), dopamine (DA) and 5-hydroxytryptamine (5-HT) in the cerebellar tissue homogenate was measured respectively by means of fluorophotometry.
(§2) At the end of the test, the heads of mice were rapidly cut off and the brain tissues were immediately taken out, promptly frozen with dry ice and moved into a refrigerator having a temperature of −20□. The tissue was defreezed before homogenization. The cerebellum, medulla oblongata and olfactory bulb were removed, and then 300 mg brain tissue was weighed with a analytical balance. Then 10 times amount by volume of acidic n-butanol (prepared by saturating 100 ml re-steamed n-butanol with NaCl, and mixing with 0.85 ml strong hydrochloric acid) were added into the brain tissue for homogenization.
(§3) The brain tissue homogenate was centrifugated (2,000 rpm) for 5 min. Then 2.5 ml supernatant was taken out and placed in centrifuge tube with a plug containing 1 ml 0.1N HC1 and 5 ml n-heptane. The centrifuge tube was placed on the KS vibrator, oscillated for 5 min and centrifugated (2,500 rpm) for 5 min. 6 to ml upper organic phase was placed into the tube having a plug and containing 0.6 ml 0.033 M NaHCO3 so as to extract 5-HIAA. Then 0.5 ml and 0.4 ml were respectively taken out from the lower aqueous phase, wherein the former was used to measure NA and DA, and the latter was used to measure 5-HT.
(§4) Internal standard tube treatment: 9 ml of the acidic n-butanol homogenate was averagely divided into 3 tubes, to two of them, 40 μl mixed standard solution (respectively containing 5 μg/ml standard substances of NA, DA and 5-HT) was added.

[5] = tested on: normal mice; assay: NA, DA and 5-HT in the brain tissue of normal mice (fluorophotometry); settings: for 5-HT in the brain tissue of normal mice / DA in the brain tissue of normal mice / NA in the brain tissue of normal mice: gavage 25 days, 80 min after final administration; for effect on 5-HT in brain tissue of normal mice (in words) / effect on NA and DA in brain tissue of normal mice (in words): positive control, P<0.01
Description: Method: ICR male mice; and the groups and administration doses can be found in Table 10. The animals in the groups of administration with a drug were administered by gavage for 25 consecutive days. At 80 min after the final administration, the heads of mice were cut off and the brain tissues were taken out, frozen with dry ice and preserved at −20□. The content of noradrenaline (NA), dopamine (DA) and 5-hydroxytryptamine (5-HT) in the whole brain homogenate without cerebellum was measured respectively by means of the fluorophotometry^[2].
as §2, §3, §4
(3) Measurement: The fluorophotometry was conducted on NA, DA and 5-HT (KUANG Peigen, ZHOU Xinfu and XU Bo, Extraction of Monoamine Neurotransmitters in Brain Tissue and Measurement of the Neurotransmitters by Means of Fluorophotometry, Academic Journal of PLA Postgraduate Medical School, 1982, 3(2) 181-185).

[6] = tested on: 5-HTP model mice; assay: Shaking-head behavior induced by 5-hydroxytryptophane (5-HTP) after pargyline; settings: 14 mg/kg body weight; P<0.01
Source text: (IV) Effects of Capsules of the Present Invention on Shaking-Head Behavior Induced by 5-hydroxytryptophane (5-HTP) 1. Principle: according to the monoamine hypothesis on the occurrence of depression, the function of antidepressant lies in that it can enhance the functions of the noradrenergic and/or serotonergic nerve. A great variety of antidepressant may enhance the effect of 5-HT by blocking the reuptake of 5-HT. 5-HTP may be used as a precursor of 5-HT, and monoamine oxidase inhibitor—pargyline hydrochloride may inhibit the enzymatic degradation thereof. The characteristic symptom—shaking-head behavior is obvious on mice. The enhancement of shaking-head behavior of mice after administration of the test drug may be used as an evidence to the fact that the inhibition of 5-HT uptaking function is the anti-depression mechanism. 2. Method: ICR male mice (20±1 g) were stochastically divided into seven groups according to the body weight, and each group comprises 12 animals. The animals in the groups of administration with a drug were consecutively administered by gavage for 21 days. […] Except the normal control group, other groups were administered with 20 mg/kg body weight of 5-HTP by intraperitoneal injection 90 min after injection of pargyline; and the times of shaking-head behavior were recorded in the following 10 minutes.

[7] = tested on: normal mice; assay: Analgetic effects on normal mice (hot plate method); settings: 0.33 g/kg body weight, gavage 3 days; hot plate 56±0.5
Description: ICR female mice having a body weight of 18-22 g were stochastically divided into six groups according to the body weight. Before test, the temperature of the aqueous thermostat was controlled at 56±0.5[…]. One mouse was placed on the hot plate each time, and the time of licking postpedes was defined as the pain threshold of said mouse. […] The normal pain thresholds were measured again. The average value of two normal pain thresholds was used as the pain threshold of the mouse before administration. […] There were 22 mice in the normal control group, and there were 11 mice in each of other groups.

[8] = tested on: mice given acetic acid; assay: Stretching caused by intraperitoneal acetic acid (stretching method); settings: 0.33 g/kg body weight, gavage 3 days; 0.6% glacial acetic acid ip; during 15 minutes
Source text: Method: ICR mice having a body weight of 18-22 g, half male and half female, were randomly divided into five groups according to the body weight, including the group of 5 g/kg body weight capsules of the present invention, the group of 2.5 g/kg body weight capsules of the present invention, the group of 1.25 g/kg body weight capsules of the present invention, the aspirin group (0.33 g/kg body weigh), and the normal control group (administered with isovolumetric normal saline). There were 19 mice in the normal control group, and there were 10-11 mice in each of other groups. The animals in the groups of administration with a drug were consecutively administered for 3 days by gavage. Except the normal control group, each mouse in other groups was administered by intraperitoneal injection with 0.1 ml/10 g body weight 0.6% glacial acetic acid at 1 h after the final administration. Then the times of stretching caused by glacial acetic acid during 15 minutes after injection were recorded.

[9] = tested on: mice given sodium pentobarbital; assay: Rate of falling asleep caused by intraperitoneal sodium pentobarbital; settings: 0.33 g/kg body weight, gavage 7 days; sodium pentobarbital 35 mg/kg ip; 11 animals
Description: III. […] Method: ICR mice having a body weight of 18-22 g, half male and half female, were randomly divided into five groups according to the body weight (see Table 14 for details). The animals in the groups of administration with a drug were consecutively administered for 7 days by gavage. Mice were weighed before the last administration, and administered by intraperitoneal injection with 35 mg/kg body weight sodium pentobarbital at 1 h after the last administration. The number of animals falling asleep was recorded.

[10] = 0.014 g/kg body weight, 22 days, reserpine 2 mg/kg ip
[11] = 0.01 g/kg body weight, 5 animals
[12] = 0.01 g/kg body weight per Table 10
[13] = 0.050 g/kg body weight, 22 days, reserpine 2 mg/kg ip
[14] = 0.050 g/kg body weight, 8 animals
[15] = 0.05 g/kg body weight per Table 10

CNCCC(Oc1ccc(C(F)(F)F)cc1)c1ccccc1 (centres unmarked) [Fluose fine hydrochloride, Fluoxetine Hydrochloride]
Number of animals which close the eyelids at 1 h after the administration, ± (semi-open eyelids) ([1]; 0.014 g/kg body weight): 8 | Number of animals which close the eyelids at 1 h after the administration, − (open eyelids) ([1]; 0.014 g/kg body weight): 7 | Number of animals which close the eyelids at 1 h after the administration, □ (close eyelids) ([1]; 0.014 g/kg body weight): 0 | Number of animals which close the eyelids at 2 h after the administration, ± (semi-open eyelids) ([1]; 0.014 g/kg body weight): 6 | Number of animals which close the eyelids at 2 h after the administration, − (open eyelids) ([1]; 0.014 g/kg body weight): 5 | Number of animals which close the eyelids at 2 h after the administration, □ (close eyelids) ([1]; 0.014 g/kg body weight): 4 | Number of animals which close the eyelids at 6 h after the administration, ± (semi-open eyelids) ([1]; 0.014 g/kg body weight): 11 | Number of animals which close the eyelids at 6 h after the administration, − (open eyelids) ([1]; 0.014 g/kg body weight): 2 | Number of animals which close the eyelids at 6 h after the administration, □ (close eyelids) ([1]; 0.014 g/kg body weight): 2 | effect on reserpine-induced ptosis (in words) ([1]; 14 mg/kg body weight): antagonistic against reserpine-induced ptosis | Number of animals that have excircle behaviors at 2 h, Excircle (+) ([2]; 0.014 g/kg body weight): 15 | Number of animals that have excircle behaviors at 2 h, Within circle (□) ([2]; 0.014 g/kg body weight): 0 | Number of animals that have excircle behaviors at 4 h, Excircle (+) ([2]; 0.014 g/kg body weight): 15 | Number of animals that have excircle behaviors at 4 h, Within circle (□) ([2]; 0.014 g/kg body weight): 0 | Number of animals that have excircle behaviors at 6 h, Excircle (+) ([2]; 0.014 g/kg body weight): 14 | Number of animals that have excircle behaviors at 6 h, Within circle (□) ([2]; 0.014 g/kg body weight): 1 | effect on “excircle” rate of reserpine mice (in words) ([2]; 14 mg/kg body weight): notably increase the “excircle” rate | Body temperature difference, 6 h after making models [3, 10]: 2.66 ± 1.11 □ | Body temperature difference, 24 h after making models [3, 10]: 2.27 ± 1.00 □ | Body temperature, 6 h after making models [3, 10]: 35.0 ± 0.87 □ | effect on fall in body temperature caused by reserpine (in words) ([3]; 14 mg/kg body weight): notably antagonize the fall in body temperature | 5-HT in the brain tissue of reserpine mice [4, 11]: 707.25 ± 115.94 ng/g | DA in the brain tissue of reserpine mice [4, 11]: 1967.20 ± 562.57 ng/g | NA in the brain tissue of reserpine mice [4, 11]: 1326.48 ± 670.50 ng/g | 5-HT in the brain tissue of normal mice ([5]; 0.01 g/kg body weight): 841.85 ng/g | DA in the brain tissue of normal mice ([5]; 0.01 g/kg body weight): 1432.52 ± 395.77 ng/g | NA in the brain tissue of normal mice ([5]; 0.01 g/kg body weight): 896.46 ng/g | effect on 5-HT in brain tissue of normal mice (in words) [5, 12]: notably increase the level of 5-HT | effect on NA and DA in brain tissue of normal mice (in words) [5, 12]: increase the level of NA and DA | effect on 5-HTP-induced shaking-head behavior (in words) [6]: notably increase the times of 5-HTP-induced shaking-head behavior

CN(C)CCC=C1c2ccccc2CCc2ccccc21 [amitriptyline, Amitriptyline Hydrochloride]
Number of animals which close the eyelids at 1 h after the administration, ± (semi-open eyelids) ([1]; 0.050 g/kg body weight): 10 | Number of animals which close the eyelids at 1 h after the administration, − (open eyelids) ([1]; 0.050 g/kg body weight): 4 | Number of animals which close the eyelids at 1 h after the administration, □ (close eyelids) ([1]; 0.050 g/kg body weight): 1 | Number of animals which close the eyelids at 2 h after the administration, ± (semi-open eyelids) ([1]; 0.050 g/kg body weight): 11 | Number of animals which close the eyelids at 2 h after the administration, − (open eyelids) ([1]; 0.050 g/kg body weight): 2 | Number of animals which close the eyelids at 2 h after the administration, □ (close eyelids) ([1]; 0.050 g/kg body weight): 2 | Number of animals which close the eyelids at 6 h after the administration, ± (semi-open eyelids) ([1]; 0.050 g/kg body weight): 12 | Number of animals which close the eyelids at 6 h after the administration, − (open eyelids) ([1]; 0.050 g/kg body weight): 0 | Number of animals which close the eyelids at 6 h after the administration, □ (close eyelids) ([1]; 0.050 g/kg body weight): 3 | effect on reserpine-induced ptosis (in words) ([1]; 50 mg/kg body weight): antagonistic against reserpine-induced ptosis | Number of animals that have excircle behaviors at 2 h, Excircle (+) ([2]; 0.050 g/kg body weight): 15 | Number of animals that have excircle behaviors at 2 h, Within circle (□) ([2]; 0.050 g/kg body weight): 0 | Number of animals that have excircle behaviors at 4 h, Excircle (+) ([2]; 0.050 g/kg body weight): 13 | Number of animals that have excircle behaviors at 4 h, Within circle (□) ([2]; 0.050 g/kg body weight): 2 | Number of animals that have excircle behaviors at 6 h, Excircle (+) ([2]; 0.050 g/kg body weight): 13 | Number of animals that have excircle behaviors at 6 h, Within circle (□) ([2]; 0.050 g/kg body weight): 2 | effect on “excircle” rate of reserpine mice (in words) ([2]; 50 mg/kg body weight): notably increase the “excircle” rate | Body temperature difference, 6 h after making models [3, 13]: 2.38 ± 1.30 □ | Body temperature, 6 h after making models [3, 13]: 34.36 ± 1.12 □ | effect on fall in body temperature caused by reserpine (in words) ([3]; 50 mg/kg body weight): notably antagonize the fall in body temperature | effect on NA and DA in brain tissue of reserpine mice (in words) ([4]; 50 mg/kg body weight): notably enhance the level of NA and DA | 5-HT in the brain tissue of reserpine mice [4, 14]: 557.57 ± 174.75 ng/g | DA in the brain tissue of reserpine mice [4, 14]: 1806.61 ± 275.37 ng/g | NA in the brain tissue of reserpine mice [4, 14]: 1023.46 ± 619.56 ng/g | 5-HT in the brain tissue of normal mice ([5]; 0.05 g/kg body weight): 1015.17 ng/g | DA in the brain tissue of normal mice ([5]; 0.05 g/kg body weight): 1519.29 ± 373.72 ng/g | NA in the brain tissue of normal mice ([5]; 0.05 g/kg body weight): 803.54 ng/g | effect on 5-HT in brain tissue of normal mice (in words) [5, 15]: notably increase the level of 5-HT | effect on NA and DA in brain tissue of normal mice (in words) [5, 15]: increase the level of NA and DA

CC(=O)Oc1ccccc1C(=O)O [Aspirin]
Pain threshold, 1 h after admi. [7]: 18.27 ± 12.52 S | Pain threshold, 3 h after admi. [7]: 15.27 ± 2.57 S | Pain threshold, 5 h after admi. [7]: 16.09 ± 4.70 S | Stretching times [8]: 12.00 ± 9.20 | Number of animals falling asleep, Falling asleep [9]: 5 | Number of animals falling asleep, Not falling asleep [9]: 6
